Assay results published in US20210315893A1 (Galapagos NV, priority 2017, published 2021).
pEC50: −log10 of the molar value. Where two headings read alike, the source gives them in different places.

Assays:
HFL-1 cells [1] = experiment: IL-8 production assay (S1P induced IL-8); assay type: cell-based; details: Homo sapiens, HFL1; S1P (1 μM) induced IL-8 in HFL-1 cells, starvation medium without HSA; read-out: IL8 EC50
Procedure, shortened: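 HFL-1 fibroblasts in low-serum medium were pretreated 1 h with a 10-point 1/3 series of compound starting at 30 μM (0.3% DMSO).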

HFL-1 cells [2] = experiment: IL8 assay in the presence of Human Serum Albumin; details: HFL1, read-out: HSA IL8 EC50
[3] = biological target: T1, human GPCR sphingosine 1-phosphate receptor 1 (Homo sapiens, UniProt P21453); experiment: S1PR1 selectivity Ca2+ flux assay (antagonist readout); assay type: cell-based; details: for EC50: antagonist readout, CHO cells overexpressing human S1PR1 and Gq, S1P at EC80 (6 nM), read-out: S1P1 EC50 (nM), S1P1 antagonist EC50
T1 construct: host or cells: CHO
T1 sequence (P21453 whole entry): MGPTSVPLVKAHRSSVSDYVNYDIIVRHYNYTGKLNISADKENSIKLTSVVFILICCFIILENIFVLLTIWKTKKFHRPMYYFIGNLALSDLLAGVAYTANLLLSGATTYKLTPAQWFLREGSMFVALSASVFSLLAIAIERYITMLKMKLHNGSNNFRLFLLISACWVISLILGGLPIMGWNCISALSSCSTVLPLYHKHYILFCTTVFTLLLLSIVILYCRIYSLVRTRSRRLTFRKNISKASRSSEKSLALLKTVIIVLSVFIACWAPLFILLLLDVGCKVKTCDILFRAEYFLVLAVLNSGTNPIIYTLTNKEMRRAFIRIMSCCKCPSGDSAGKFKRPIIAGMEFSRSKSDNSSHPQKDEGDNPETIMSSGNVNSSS
Method: (§1) 50 μL of Chinese hamster ovary (CHO) cells stably overexpressing human S1PR1 or S1PR5 are seeded in 384 well sterile microplates (7,500 cells/well or 10,000 cells/well respectively) and are incubated overnight at 37° C. under 5% CO2. Cells are subsequently washed twice with 25 μL/well of starvation medium (F-12 Ham's medium containing 0.1% fatty acid free bovine serum albumin (FAF BSA)). After one h starvation at 37° C., 5% CO2, cells are loaded with 25 μL of Fluo 8 dye diluted in Hank's balanced salt solution (HBSS) with 20 mM Hepes complemented with 5 mM of probenecid following the recommendations of the manufacturer (one h at 37° C., 5% CO2). Dilution series of compounds are prepared in HBSS buffer with 20 mM Hepes and 0.1% BSA (FAF). 10 μL of diluted compound is added to the cells using the FDSS/pCELL and intracellular calcium changes are measured immediately by recording fluorescence during 3 min (agonist readout). The ratio of maximal signal over background before compound injection is used to determine compound response.
After an incubation of 15 min at 37° C., following the agonist readout, the plates are transferred to the FDSS/pCELL reader. […] The ratio of maximal signal over background before S1P injection was used to determine the inhibitory effect ofthe compound.
(§2) Raw data obtained in each experiment (ratio of maximal signal over background for calcium mobilization assays) were normalized in percentage of activation (agonist mode) or inhibition (antagonist mode) using positive and negative experiment controls. Each individual plate quality was assessed by evaluation of Z′ factor calculated with raw data using the following equation
(§3) Y=bottom+(top−bottom)/(1+(10^(Log IC50−X)*Hillslope)) where X is the logarithm of the concentration of the compound

[4] = biological target: T2, human GPCR sphingosine 1-phosphate receptor 5 (Homo sapiens, UniProt Q9H228); experiment: S1PR5 selectivity Ca2+ flux assay (antagonist readout); assay type: cell-based; details: CHO cells overexpressing human S1PR5 and Gq, agonist at EC80 (20 nM), read-out: S1P5 EC50 (nM), S1P5 antagonist EC50
T2 construct: host or cells: CHO
T2 sequence (Q9H228 whole entry): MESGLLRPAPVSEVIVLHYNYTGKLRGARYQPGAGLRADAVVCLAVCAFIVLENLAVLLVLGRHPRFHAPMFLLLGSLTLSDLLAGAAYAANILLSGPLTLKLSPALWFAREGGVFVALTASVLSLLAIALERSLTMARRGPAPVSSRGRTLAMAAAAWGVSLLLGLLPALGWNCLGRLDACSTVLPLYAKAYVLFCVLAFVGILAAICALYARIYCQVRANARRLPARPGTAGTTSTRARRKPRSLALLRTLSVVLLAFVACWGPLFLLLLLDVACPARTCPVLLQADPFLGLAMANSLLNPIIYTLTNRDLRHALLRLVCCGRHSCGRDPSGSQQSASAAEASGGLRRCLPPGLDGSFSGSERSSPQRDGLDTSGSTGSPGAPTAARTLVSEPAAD
From the text: To evaluate the selectivity of the compounds for S1PR2 over S1PR1 and S1PR5, asimilar assay set upas described above for theS1PR2 calcium flux assays waspeformed: CHO cells stably overexpressing human GPCR sphingosine 1-phosphate receptor 1 and Gq protein (Euroscreen, FAST-0197A) or overexpressing human GPCR sphingosine 1-phosphate receptorS5 and Gq protein were used (Perkin Elmer, ES-593-A). In case of the S1PR5 assay triggering was done with an SPR5 specific agonist instead of with S1P (Hobson et al., 2015).
as §1
After an incubation of 15 min at 37° C., following the agonist readout, the plates are transferred to the FDSS/pCELL reader. Cells are stimulated with 10 μL of EC80 concentration of S1P (6 nM for S1P1 and 20 nM for S1P5) and intracellular calcium changes are measured immediately by recording fluorescence during three min (antagonist readout). The ratio of maximal signal over background before S1P injection was used to determine the inhibitory effect ofthe compound.
as §2, §3

S1PR2 = biological target: T3, S1PR2 (Homo sapiens, UniProt O95136); experiment: S1PR2 binding assay (competition with radioactively labeled S1P, SpA); details: membranes from stable cell line over expressing S1PR2, SpA beads; read-out: S1P2 EC50 (nM), S1PR2 binding EC50
T3 construct: expressed in transfected cells
T3 sequence (O95136 whole entry): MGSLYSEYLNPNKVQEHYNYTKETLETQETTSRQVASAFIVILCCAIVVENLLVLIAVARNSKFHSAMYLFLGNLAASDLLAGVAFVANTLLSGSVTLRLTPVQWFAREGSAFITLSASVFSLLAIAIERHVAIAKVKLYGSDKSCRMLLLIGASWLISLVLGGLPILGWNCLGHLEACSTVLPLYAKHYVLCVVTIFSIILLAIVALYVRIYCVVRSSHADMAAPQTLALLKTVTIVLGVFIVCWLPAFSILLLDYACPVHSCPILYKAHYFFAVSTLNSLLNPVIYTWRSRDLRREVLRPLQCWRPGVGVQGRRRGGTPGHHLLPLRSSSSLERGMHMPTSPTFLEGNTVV
Procedure, shortened: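 Scintillation proximity read-out after 2 h room-temperature incubation of compound, [3H]S1P and S1PR2-overexpressing cell membranes on WGA-coated beads. Buffer: 20 mM Tris pH 7.5, 100 mM NaCl, 10 mM MgCl2, 1 mM Na3VO4, 0.4% fatty-acid-free BSA; plates counted immediately after centrifugation.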

[5] = biological target: T4, human GPCR sphingosine 1-phosphate receptor 2 (Homo sapiens, UniProt O95136); experiment: S1PR2 antagonist Ca2+ flux assay; assay type: cell-based; details: antagonist mode, CHO-S1PR2 cells, S1P at EC80, Ca2+ fluorescence; read-out: S1P2 EC50 (nM), S1P2 antagonist EC50
T4 construct: host or cells: CHO
T4 sequence (O95136 whole entry): as above
Procedure, shortened: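 Antagonist mode: 15 min after compound addition, S1P (EC80) stimulates Fluo8-loaded, 1 h-starved CHO-S1PR2 cells, Ca2+ read over 3 min; a prior 3-min read checks compound agonism. EC50 from peak/baseline fluorescence ratio, normalised versus vehicle and S1P EC50 (antagonist) or EC100 (agonist).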

Row | SMILES | pEC50 (HFL-1 cells [1]) | pEC50 (HFL-1 cells [2]) | EC50 [3] [nM] | EC50 [4] [nM] | EC50 (S1PR2) [nM] | EC50 [5] [nM] | pEC50 [3]
1 | O=C(O)Cn1nc(Cn2cc3cc(OCC4CC4)c(Cl)cc3n2)c2ccccc2c1=O [Compound 114, 2-[4-[[6-chloro-5-(cyclopropylmethoxy)indazol-2-yl]methyl]-1-oxo-phthalazin-2-yl]acetic acid] | 7.49 | 5.78 | ≥ 19900 | 627 | – | – | –
2 | C[C@H](C(=O)O)n1nc(Cn2cc3cc(OCC4CC4)c(Cl)cc3n2)c2ccccc2c1=O [compound 17, ((2R)-2-[4-[[6-chloro-5-(cyclo-propylmethoxy)-indazol-2-yl]-methyl]-1-oxo-phthalazin-2-yl]-propanoic acid)] | 8.52 | 6.68 | 8810 | 19800 | – | – | –
3 | O=C(O)Cn1nc(Cc2cn3cc(OCC4CC4)c(Cl)cc3n2)c2ccccc2c1=O [Compound 82, 2-[4-[[7-chloro-6-(cyclopropylmethoxy)imidazo[1,2-a]pyridin-2-yl]methyl]-1-oxo-phthalazin-2-yl]acetic acid] | 8.00 | 6.41 | ≥ 19800 | 4380 | – | – | –
4 | O=C(O)Cn1nc(Cc2nc3cc(OCC4CC4)c(F)cc3[nH]2)c2ccccc2c1=O [Compound 124, 2-[4-[[5-(cyclopropylmethoxy)-6-fluoro-1H-benzimidazol-2-yl]methyl]-1-oxo-phthalazin-2-yl]acetic acid] | 7.18 | 6.35 | 13200 | 19800 | – | – | –
5 | C[C@H](C(=O)O)c1nn(Cc2cn3cc(OCC4CC4)c(Cl)cc3n2)c2ccccc2c1=O [compound 19, (2S)-2-[1-[[7-chloro-6-(cyclo-propylmethoxy)-imidazo[1,2-a]-pyridin-2-yl]-methyl]-4-oxo-cinnolin-3-yl]-propanoic acid] | 8.89 | 7.74 | 19900 | 19900 | – | – | –
6 | N#Cc1cc2[nH]c(Cc3nn(CC4CCCN4)c(=O)c4ccccc34)nc2cc1OCC(F)F (stereo not drawn) [compound 1, 6-(2,2-difluoro-ethoxy)-2-[[4-oxo-3-(pyrrolidin-2-ylmethyl)-phthalazin-1-yl]-methyl]-3H-benzimidazole-5-carbonitrile] | 5.48 | 4.81 | ≥ 19800 | 19800 | 3930 | – | –
7 | O=C(O)Cc1nn(Cc2cn3cc(OCC4CC4)c(Cl)cc3n2)c2ccccc2c1=O [Compound 89, 2-[1-[[7-chloro-6-(cyclopropylmethoxy)imidazo[1,2-a]pyridin-2-yl]methyl]-4-oxo-cinnolin-3-yl]acetic acid] | 8.24 | 7.19 | ≥ 19800 | 6610 | – | – | –
8 | C[C@@H](C(=O)O)c1nn(Cc2cn3cc(OCC4CC4)c(Cl)cc3n2)c2ccccc2c1=O [compound 20, (2R)-2-[1-[[7-chloro-6-(cyclo-propylmethoxy)-imidazo[1,2-a]pyridin-2-yl]-methyl]-4-oxo-cinnolin-3-yl]-propanoic acid] | 6.87 | 5.48 | ≥ 19800 | 19800 | – | – | –
9 | C[C@@H](C(=O)O)n1nc(Cn2cc3cc(OCC4CC4)c(Cl)cc3n2)c2ccccc2c1=O [compound 18, (2S)-2-[4-[[6-chloro-5-(cyclo-propylmethoxy)-indazol-2-yl]-methyl]-1-oxo-phthalazin-2-yl]propanoic acid] | 6.68 | 4.65 | ≥ 19800 | 19800 | – | – | –
10 | O=C(O)C1(c2nn(Cc3cn4cc(OCC5CC5)c(Cl)cc4n3)c3ccccc3c2=O)CC1 [Compound 96, 1-[1-[[7-chloro-6-(cyclopropylmethoxy)imidazo[1,2-a]pyridin-2-yl]methyl]-4-oxo-cinnolin-3-yl]cyclopropanecarboxylic acid] | 7.52 | 6.37 | ≥ 19800 | 19800 | – | – | –
11 | O=C(O)Cn1nc(Cc2nc3cc(Cl)c(OCC(F)F)cc3[nH]2)c2ccccc2c1=O [Compound 118, 2-[4-[[5-chloro-6-(2,2-difluoroethoxy)-1H-benzimidazol-2-yl]methyl]-1-oxo-phthalazin-2-yl]acetic acid] | 7.59 | 7.02 | ≥ 19800 | 19800 | – | – | –
12 | CC(C)(C(=O)O)c1nn(Cc2cn3cc(OCC4CC4)c(Cl)cc3n2)c2ccccc2c1=O [Compound 88, 2-[1-[[7-chloro-6-(cyclopropylmethoxy)imidazo[1,2-a]pyridin-2-yl]methyl]-4-oxo-cinnolin-3-yl]-2-methyl-propanoic acid] | 7.53 | 6.39 | ≥ 19800 | 19800 | – | – | –
13 | N#Cc1cc2nc(Cc3nn(CC(=O)N4CCOCC4)c(=O)c4ccccc34)[nH]c2cc1OCC(F)F [Compound 171, 6-(2,2-difluoroethoxy)-2-[[3-(2-morpholino-2-oxo-ethyl)-4-oxo-phthalazin-1-yl]methyl]-1H-benzimidazole-5-carbonitrile] | 7.64 | 7.35 | ≥ 19800 | 19800 | – | 30 | –
14 | CCC(C(=O)O)c1nn(Cc2cn3cc(OCC4CC4)c(Cl)cc3n2)c2ccccc2c1=O (stereo not drawn) [Compound 98, 2-[1-[[7-chloro-6-(cyclopropylmethoxy)imidazo[1,2-a]pyridin-2-yl]methyl]-4-oxo-cinnolin-3-yl]butanoic acid] | 8.24 | 7.57 | ≥ 19800 | 19800 | – | – | –
15 | COC(C(=O)O)c1nn(Cc2cn3cc(OCC4CC4)c(Cl)cc3n2)c2ccccc2c1=O (stereo not drawn) [Compound 94, 2-[1-[[7-chloro-6-(cyclopropylmethoxy)imidazo[1,2-a]pyridin-2-yl]methyl]-4-oxo-cinnolin-3-yl]-2-methoxy-acetic acid] | 6.98 | 6.57 | ≥ 19800 | 19800 | – | – | –
16 | O=C(O)Cn1nc(Cc2nc3cc(OCC4CC4)c(C(F)(F)F)cc3[nH]2)c2ccccc2c1=O [Compound 123, 2-[4-[[5-(cyclopropylmethoxy)-6-(trifluoromethyl)-1H-benzimidazol-2-yl]methyl]-1-oxo-phthalazin-2-yl]acetic acid] | 8.75 | 7.59 | 1840 | 19800 | – | – | –
17 | CC(C(=O)O)c1nn(Cc2cn3cc(OCC4CC4)c(Cl)cc3n2)c2ccccc2c1=O (stereo not drawn) [compound 4, 2-[1-[[7-chloro-6-(cyclopropyl-methoxy)imidazo-[1,2-a]pyridin-2-yl]methyl]-4-oxo-cinnolin-3-yl]propanoic acid] | 8.79 | 7.72 | ≥ 19800 | 19800 | – | – | –
18 | CC(C(=O)O)n1nc(Cn2cc3cc(OCC(F)F)c(Cl)cc3n2)c2ccccc2c1=O (stereo not drawn) [Compound 76] | – | 5.46 | – | 19800 | 317 | 161 | ≤ 4.70
